Here are results for 6 compounds from patent US10870635B2, “Compounds and their use as BACE1 inhibitors” (ALLGENESIS BIOTHERAPEUTICS, INC., priority 2015, dated 2020).

The target of data set [1] is BACE1 (recombinant β-secretase enzyme) (Homo sapiens (Human), UniProt P56817). As to the kind of experiment: AnaSpec BACE1 fluorescent assay (beta-secretase activity assay). The class given is biochemical. Here is the method:
A BACE1 activity assay kit from AnaSpec (Fremont, Calif.) was used to determine the potency of the selected BACE1 inhibitors by AnaSpec BACE1 fluorescent assay. The recombinant β-secretase enzyme was diluted 1:200 in 1× assay buffer (1 part of 1× assay buffer and 1 part of TBS containing 0.1% Tween 20). The enzyme was added in a volume of 40 μl to each well of a black 96-well micro plate.
The BACE1 inhibitors were serially diluted into DMSO from their 10 mM stock concentrations in DMSO. The serially diluted inhibitors were diluted 1:100 into 1× assay buffer in a 96-well polypropylene plate (assay dilution plate). The final concentration of the BACE1 inhibitor tested was 300 nM, 100 nM, 30 nM, 10 nM, 3 nM, 1 nM 0.3 nM, and 0.00 nM. Dose responses for inhibitors were run in duplicate.
A volume of 10 μl of the inhibitor from the assay dilution plate, a control inhibitor LY2886721 or inhibitor vehicle was then added to each well of the black 96-well micro plate containing BACE1.
To each well of the black 96-well micro plate, 50 μl of the β-secretase substrate (Hylite Fluor 488) diluted 1:100 using assay buffer was added. The reagents were mixed gently and the assay plate was placed into a POLARstar fluorescent plate reader with excitation wavelength set at 485 nm and the emission wavelength set at 520 nm. The plate reader was set to take readings every 5 minutes for up to 30 minutes or a 30 minute endpoint reading was used.
An appropriate integrated first-order rate equation was used to fit the data accumulated over a 30-40 minute collection period.

The target in data set [2] is Human recombinant cathepsin D (Homo sapiens (Human), UniProt P07339). Description: Cathepsin D activity assay. The data set is classed as biochemical. The conditions noted are these: read-out: CatD IC50.
Protocol: The development of a CatD activity assay is used to determine any potential cross reactivity for compounds selected from the β-secretase activity assay and to determine the selectivity to BACE1 inhibition. The CatD activity is reported for assessing target selectivity ratio (CatD IC50/BACE1 IC50).
The reagents for the cathepsin D assay were prepared as follows.
Human recombinant cathepsin D stored frozen in 2.0 μl aliquots was thawed and 42 μl of enzyme buffer (0.1M NaOAC, 0.2 M NaCl, pH 3.5) was added and incubated at 37° C. for 30 minutes. After 30 minutes the enzyme was further diluted to a final volume of 4.4 ml in enzyme buffer containing 5.0 mM DTT for immediate use in the cathepsin D assay.
The 7-methoxycoumarin-labeled peptide substrate (ES010) for cathepsin D was supplied as a 6.2 mM stock in DMSO. For use in the cathepsin D assay, the 6.2 mM stock was diluted to a 1.55 mM stock with DMSO. The 1.55 mM peptide stock in DMSO was further diluted 1:100 in reaction buffer (0.1M NaOAC, 0.2M NaCl, 0.1% Tween 20, 5.0 mM DTT, pH3.5) to create a 15.5 μM stock for use in the assay.
DMSO without compound served as a DMSO vehicle control for the cathepsin D assay. For each test compound, 30 μl of each dilution was pipetted into a separate well of a 96-well polypropylene plate. This polypropylene plate was labeled as the DMSO dilution plate and a plate map of test compound locations was made.
Test compounds from the DMSO dilution plate require a 1:100 dilution into reaction buffer before they can be added to the cathepsin D assay plate. To accomplish the 1:100 dilution of test compounds, 2.0 μl of each test compound at each concentration was pipetted from the DMSO dilution plate (using a multi-channel pipette calibrated to accurately dispense a 2.0 μl volume) into a new 96-well polypropylene plate using the plate map created for the DMSO dilution plate. This 96-well plate served as the inhibitor dilution plate. Next, 198 μl of reaction buffer was pipetted into each well of the inhibitor dilution plate (using a multi-channel pipette calibrated for accurate delivery of a 198 μl volume) and the pipetted test compound mixed by gentle up and down pipetting.
A1.0 mM stock of pepstatin A was made in DMSO and aliquotted into 5.0 μl samples for freezing and storage at −20° C. Upon thawing, 45 μl of DMSO (1:10 dilution) was added to create a 100 μM stock of pepstatin A in DMSO. The 100 μM Pepstatin A stock was further diluted 1:10 with DMSO to create a 10 μM stock in DMSO. […]
The assay plate was placed into a fluorescent plate reader with the excitation wavelength set at 320 nm and the emission wavelength set at 405 nm. Readings were collected every minute over a 30 minute collection period.
In a further data set the target is recombinant BACE2 (Homo sapiens (Human), UniProt Q9Y5Z0). As to the kind of experiment: AnaSpec BACE2 fluorescent assay. The class given is biochemical. On the procedure: A BACE2 activity assay kit from AnaSpec (Fremont, Calif.) was used to determine the potency of the selected compounds by AnaSpec BACE2 fluorescent assay. To each well of a black 96-well micro plate, 50 μl of the β-secretase substrate (Hylite Fluor 488) diluted 1:100 using assay buffer was first added.
The compounds were serially diluted (1:2) into DMSO from their 10 mM stock concentrations in DMSO. The serially diluted inhibitors were diluted 1:100 into 1× assay buffer in a 96-well polypropylene plate (assay dilution plate). The final concentration of these compounds tested was 300 nM, 150 nM, 75 nM, 37.5 nM, 18.75 nM, 9.375 nM, 4.688 nM, 2.344 nM, 1.172 nM, 0.586 nM, and 0.293 nM.
A volume of 10 μl of the inhibitor from the assay dilution plate, a control inhibitor LY2886721 or inhibitor vehicle was then added to each well of the black 96-well micro plate.
The recombinant BACE2 was diluted in an assay buffer and the final BACE2 was 10.6 nM. The enzyme was added in a volume of 40 μl to each well of a black 96-well micro plate.
The reagents were mixed gently and the assay plate was placed into a POLARstar fluorescent plate reader with excitation wavelength set at 485 nm and the emission wavelength set at 520 nm. The plate reader was set to take readings every 5 minutes for up to 30 minutes or a 30 minute endpoint reading was used.
An appropriate integrated first-order rate equation was used to fit the data accumulated over a 30-40 minute collection period. Dose responses for inhibitors were run in duplicate.

For data set [3] the following is noted: animal toxicology study; cited from earlier work.
For data set [4] the following is noted: in humans; cited from earlier work.
In data set [5] the test system is CSF Aβ40, Aβ42 and soluble APPβ. As to conditions: AD patients, reported by Merck; cited from earlier work.

By IC50 is commonly meant the concentration that gives 50% inhibition.

Chain of BACE1 (recombinant β-secretase enzyme) (P56817 46-501): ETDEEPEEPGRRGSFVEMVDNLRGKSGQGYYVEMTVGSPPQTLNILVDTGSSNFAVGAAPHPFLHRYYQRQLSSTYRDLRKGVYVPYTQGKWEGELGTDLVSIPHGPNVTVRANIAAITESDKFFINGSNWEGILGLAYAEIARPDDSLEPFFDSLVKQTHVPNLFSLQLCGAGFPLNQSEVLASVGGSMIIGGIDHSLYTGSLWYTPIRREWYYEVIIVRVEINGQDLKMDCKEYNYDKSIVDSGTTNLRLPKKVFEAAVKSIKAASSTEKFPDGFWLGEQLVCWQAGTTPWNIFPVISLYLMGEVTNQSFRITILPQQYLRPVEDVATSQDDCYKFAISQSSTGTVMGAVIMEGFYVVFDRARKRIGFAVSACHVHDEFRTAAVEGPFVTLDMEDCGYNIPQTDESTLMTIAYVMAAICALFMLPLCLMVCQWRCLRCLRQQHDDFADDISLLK
Chain of recombinant BACE2 (Q9Y5Z0 63-518): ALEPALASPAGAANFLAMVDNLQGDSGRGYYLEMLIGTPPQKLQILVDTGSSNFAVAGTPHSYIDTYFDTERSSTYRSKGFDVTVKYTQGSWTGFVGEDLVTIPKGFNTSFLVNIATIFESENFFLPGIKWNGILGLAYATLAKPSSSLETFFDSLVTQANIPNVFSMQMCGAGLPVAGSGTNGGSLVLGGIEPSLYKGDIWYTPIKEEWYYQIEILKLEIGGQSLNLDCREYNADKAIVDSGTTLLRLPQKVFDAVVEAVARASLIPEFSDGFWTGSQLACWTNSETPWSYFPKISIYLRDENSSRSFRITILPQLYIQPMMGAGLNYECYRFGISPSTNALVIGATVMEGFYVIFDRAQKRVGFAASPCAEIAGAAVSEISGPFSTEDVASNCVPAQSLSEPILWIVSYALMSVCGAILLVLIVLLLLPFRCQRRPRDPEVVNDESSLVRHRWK
Chain of Human recombinant cathepsin D (P07339 65-412): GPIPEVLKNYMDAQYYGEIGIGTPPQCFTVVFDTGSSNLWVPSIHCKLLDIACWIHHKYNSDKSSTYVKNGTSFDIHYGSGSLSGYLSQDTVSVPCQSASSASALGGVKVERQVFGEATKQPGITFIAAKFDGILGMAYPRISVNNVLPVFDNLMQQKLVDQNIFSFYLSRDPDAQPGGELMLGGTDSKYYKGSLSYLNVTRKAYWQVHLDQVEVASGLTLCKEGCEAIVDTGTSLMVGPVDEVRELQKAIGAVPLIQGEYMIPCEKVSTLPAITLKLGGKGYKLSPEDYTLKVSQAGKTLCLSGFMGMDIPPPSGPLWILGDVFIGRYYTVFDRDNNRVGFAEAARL

For the compound `CC#Cc1ccc2sc3ccc([C@]4(C)CC(=O)N(C)C(=N)N4)cc3c2c1` [Example 1, (S)-2-Imino-3,6-dimethyl-6-(8-(prop-1-yn-1-yl)dibenzo[b,d]thiophen-2-yl)tetrahydropyrimidin-4(1H)-one], the half-inhibitory concentration (IC50) worked out at 26 nM in data set [1] and 12300 nM in data set [2].
`CC#Cc1ccc2[nH]c([C@]3(C)CC(=O)N(C)C(=N)N3)c(Cl)c2c1` [Example 38, (S)-6-(3-Chloro-5-(prop-1-yn-1-yl)-1H-indol-2-yl)-2-imino-3,6-dimethyl-tetrahydropyrimidin-4(1H)-one]: the IC50 at recombinant BACE2 came to 24 nM; in data set [1], 44 nM.
Regarding `CC#Cc1ccc2sc3cc(Cl)c([C@]4(C)CC(=O)N(C)C(N)=N4)cc3c2c1` [Example 71, (S)-2-Amino-6-(3-chloro-8-(prop-1-yn-1-yl)dibenzo[b,d]thiophen-2-yl)-3,6-dimethyl-5,6-dihydropyrimidin-4(3H)-one], the IC50 on recombinant BACE2 came to 23.8 ± 1.52 nM; in data set [1] it was 44 nM; in data set [2] it was 3900 nM.
`C[C@@]1(c2cc(-c3cncnc3)c(F)cc2F)CCSC(N)=N1` [LY-2811376]: the “toxicity finding leading to discontinuation” value in data set [3] is listed as “retinal toxicity”.
Consider `NC1=N[C@@]2(c3cc(NC(=O)c4ccc(F)cn4)ccc3F)COC[C@H]2CS1` [LY-2886721], for which the “toxicity finding leading to termination” value in data set [4] was “liver toxicity”.
In the case of `CN1C(=N)N[C@](C)(c2cc(NC(=O)c3ccc(F)cn3)ccc2F)CS1(=O)=O` [MK-8931], the “effect on CSF Aβ40, Aβ42 and soluble APPβ” value in data set [5] is “reduce CSF Aβ40, Aβ42 and soluble APPβ”.
